Experimental data: patent US20060069132A1, “Azolecarboxamide herbicides” (priority 2004, published 2006)

Key:
eastern black nightshade = assay: Test C pre-/postemergence herbicide test; assay type: in vivo, Solanum ptycanthum; conditions: for Plant response rating, Nightshade / Plant response rating (0 = no effect, 100 = complete control), Nightshade: preemergence; for Plant response rating (0 = no effect, 100 = complete control), Nightshade: 62 g ai/ha
In short: (§1)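 Emerged plants at the 1- to 4-leaf stage (2–18 cm), or freshly planted seeds, received test chemicals in a non-phytotoxic solvent mixture with surfactant. Response was visually scored against controls after 12 to 14 days in the greenhouse, on a 0 (no effect) to 100 (complete control) scale.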

Surinam grass = assay: Test C pre-/postemergence herbicide test; assay type: in vivo, Urochloa decumbens; conditions: for Surinam Grass plant response rating: 500 g ai/ha
In short: as §1

velvetleaf = assay: Test C pre-/postemergence herbicide test; assay type: in vivo, Abutilon theophrasti; conditions: for Velvetleaf plant response rating: 500 g ai/ha
In short: as §1

barnyardgrass = assay: Test A pre-/postemergence herbicide test; assay type: in vivo, Echinochloa crus-galli
In short: (§2)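 Both application timings were run together: directed soil spray over freshly planted seeds in sandy loam, and runoff spray onto 2–10 cm seedlings. Evaluation after ~10 days in greenhouse used a 0–100 visual scale versus untreated controls.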

morningglory = assay: Test A pre-/postemergence herbicide test; assay type: in vivo, Ipomoea spp.
In short: as §2

woolly cupgrass = assay: Test C pre-/postemergence herbicide test; assay type: in vivo, Eriochloa villosa; conditions: for Cupgrass, Woolly plant response rating: 500 g ai/ha
In short: as §1

johnsongrass = assay: Test C pre-/postemergence herbicide test; assay type: in vivo, Sorghum halepense; conditions: for Johnsongrass plant response rating: 500 g ai/ha
In short: as §1

corn = assay: Test C pre-/postemergence herbicide test; assay type: in vivo, Zea mays; conditions: for Corn plant response rating: 500 g ai/ha
In short: as §1

[1] = test system: common (oilseed) sunflower; assay: Test C pre-/postemergence herbicide test; assay type: in vivo, Helianthus annuus; conditions: for Plant response rating, Sunflower / Plant response rating (0 = no effect, 100 = complete control), Sunflower: preemergence; for Plant response rating (0 = no effect, 100 = complete control), Sunflower: 62 g ai/ha
In short: as §1

[2] = 31 g ai/ha, preemergence, scale 0 to 100
[3] = postemergence, 125 g ai/ha, scale 0 to 100
[4] = postemergence, 31 g ai/ha, scale 0 to 100
[5] = postemergence, 62 g ai/ha, scale 0 to 100
[6] = Postemergence, 500 g ai/ha, 0 to 100 scale, 0 no effect, 100 complete control
[7] = Postemergence, 2000 g ai/ha, 0 to 100 scale, 0 no effect, 100 complete control
[8] = Preemergence, 500 g ai/ha, visual rating, 0 to 100 scale (0 no effect, 100 complete control)
[9] = Preemergence, 2000 g ai/ha, 0 to 100 scale, 0 no effect, 100 complete control
[10] = 125 g ai/ha, scale 0-100, preemergence
[11] = Postemergence, 125 g ai/ha, scale 0 to 100, 0 no effect, 100 complete control
[12] = 125 g ai/ha, scale 0 (no effect) to 100 (complete control), visual, 12 to 14 days
[13] = 250 g ai/ha, scale 0 to 100 (0 no effect, 100 complete control), visual, 12 to 14 days
[14] = Preemergence, 500 g ai/ha, scale 0 to 100, 0 no effect, 100 complete control
[15] = 125 g ai/ha, scale 0 (no effect) to 100 (complete control), visual, 12 to 14 days, preemergence
[16] = 250 g ai/ha, scale 0 to 100 (0 no effect, 100 complete control), visual, 12 to 14 days, preemergence
[17] = Postemergence, 250 g ai/ha, scale 0 to 100, 0 no effect, 100 complete control
[18] = Preemergence, scale 0 to 100, 0 no effect, 100 complete control
[19] = Preemergence, 2000 g ai/ha, visual rating, 0 to 100 scale (0 no effect, 100 complete control)

## C=Cn1nc(C(C)(C)C)cc1C(=O)Nc1cccc(C(=O)NCC)c1 [Compound 33]
Eastern black nightshade; 31 g ai/ha, scale 0 to 100
  Plant response rating, Nightshade: 10
Eastern black nightshade
  Plant response rating (0 = no effect, 100 = complete control), Nightshade: 60
Surinam grass; [2]
  Plant response rating, Surinam Grass: 20
Surinam grass; 62 g ai/ha, preemergence
  Plant response rating (0 = no effect, 100 = complete control), Surinam Grass: 20
Surinam grass; [3]
  Plant response rating, Surinam Grass: 50
Surinam grass; [4]
  Plant response rating, Surinam Grass: 50
Surinam grass; [5]
  Plant response rating, Surinam Grass: 50
velvetleaf; [2]
  Plant response rating, Velvetleaf: 0
velvetleaf; [4]
  Plant response rating, Velvetleaf: 60
velvetleaf; [5]
  Plant response rating, Velvetleaf: 90
barnyardgrass; [6]
  Plant response rating, Barnyardgrass: 75
barnyardgrass; [7]
  Plant response rating, Barnyardgrass: 90
barnyardgrass; [8]
  Barnyardgrass plant response rating: 55
barnyardgrass; [9]
  Barnyardgrass plant response rating: 80
morningglory; [6]
  Plant response rating, Morningglory: 10
morningglory; [7]
  Plant response rating, Morningglory: 25
morningglory; [8]
  Morningglory plant response rating: 35
morningglory; [9]
  Morningglory plant response rating: 70
Woolly cupgrass; [2]
  Plant response rating, Cupgrass, Woolly: 20
Woolly cupgrass; 62 g ai/ha, preemergence
  Plant response rating (0 = no effect, 100 = complete control), Cupgrass, Woolly: 20
Woolly cupgrass; [10]
  Plant response rating, Cupgrass, Woolly: 50
Woolly cupgrass; [11]
  Plant response rating, Cupgrass, Woolly: 60
Woolly cupgrass; [4]
  Plant response rating, Cupgrass, Woolly: 50
Woolly cupgrass; [5]
  Plant response rating, Cupgrass, Woolly: 60
johnsongrass; [2]
  Plant response rating, Johnsongrass: 20
johnsongrass; 62 g ai/ha, preemergence
  Plant response rating (0 = no effect, 100 = complete control), Johnsongrass: 20
johnsongrass; [10]
  Plant response rating, Johnsongrass: 80
johnsongrass; [11]
  Plant response rating, Johnsongrass: 90
johnsongrass; [4]
  Plant response rating, Johnsongrass: 70
johnsongrass; [5]
  Plant response rating, Johnsongrass: 90
corn; [2]
  Plant response rating, Corn: 0
corn; 62 g ai/ha, preemergence
  Plant response rating (0 = no effect, 100 = complete control), Corn: 0
corn; [10]
  Plant response rating, Corn: 0
corn; [11]
  Plant response rating, Corn: 40
corn; [4]
  Plant response rating, Corn: 40
corn; [5]
  Plant response rating, Corn: 40
[1]; 31 g ai/ha, scale 0 to 100
  Plant response rating, Sunflower: 0
[1]
  Plant response rating (0 = no effect, 100 = complete control), Sunflower: 0

## C=CCNC(=O)c1cccc(NC(=O)c2cc(C(C)(C)C)nn2CC)c1 [Compound 46]
Eastern black nightshade
  Plant response rating (0 = no effect, 100 = complete control), Nightshade: 90
Eastern black nightshade; [12]
  Plant response rating, Nightshade: 100
Eastern black nightshade; [13]
  Plant response rating, Nightshade: 100
Eastern black nightshade; [14]
  Nightshade plant response rating: 100
Surinam grass; 62 g ai/ha, preemergence
  Plant response rating (0 = no effect, 100 = complete control), Surinam Grass: 10
Surinam grass; [15]
  Plant response rating, Surinam Grass: 30
Surinam grass; [16]
  Plant response rating, Surinam Grass: 60
Surinam grass; Postemergence, scale 0 to 100
  Surinam Grass plant response rating: 50
Surinam grass; [17]
  Plant response rating, Surinam Grass: 50
Surinam grass; [18]
  Surinam Grass plant response rating: 80
Surinam grass; [5]
  Plant response rating, Surinam Grass: 40
velvetleaf; 62 g ai/ha, preemergence
  Plant response rating (0 = no effect, 100 = complete control), Velvetleaf: 90
velvetleaf; [15]
  Plant response rating, Velvetleaf: 100
velvetleaf; [16]
  Plant response rating, Velvetleaf: 100
velvetleaf; Postemergence, scale 0 to 100
  Velvetleaf plant response rating: 80
velvetleaf; [17]
  Plant response rating, Velvetleaf: 80
velvetleaf; [18]
  Velvetleaf plant response rating: 100
velvetleaf; [5]
  Plant response rating, Velvetleaf: 50
barnyardgrass; [6]
  Plant response rating, Barnyardgrass: 100
barnyardgrass; [7]
  Plant response rating, Barnyardgrass: 100
barnyardgrass; [8]
  Barnyardgrass plant response rating: 90
barnyardgrass; [9]
  Barnyardgrass plant response rating: 100
morningglory; [6]
  Plant response rating, Morningglory: 40
morningglory; [7]
  Plant response rating, Morningglory: 65
morningglory; [8]
  Morningglory plant response rating: 40
morningglory; [9]
  Morningglory plant response rating: 65
Woolly cupgrass; 62 g ai/ha, preemergence
  Plant response rating (0 = no effect, 100 = complete control), Cupgrass, Woolly: 10
Woolly cupgrass; [15]
  Plant response rating, Cupgrass, Woolly: 10
Woolly cupgrass; [16]
  Plant response rating, Cupgrass, Woolly: 30
Woolly cupgrass; Postemergence, scale 0 to 100
  Cupgrass, Woolly plant response rating: 70
Woolly cupgrass; [11]
  Plant response rating, Cupgrass, Woolly: 60
Woolly cupgrass; [17]
  Plant response rating, Cupgrass, Woolly: 70
Woolly cupgrass; [18]
  Cupgrass, Woolly plant response rating: 80
Woolly cupgrass; [5]
  Plant response rating, Cupgrass, Woolly: 40
johnsongrass; 62 g ai/ha, preemergence
  Plant response rating (0 = no effect, 100 = complete control), Johnsongrass: 50
johnsongrass; [15]
  Plant response rating, Johnsongrass: 80
johnsongrass; [16]
  Plant response rating, Johnsongrass: 90
johnsongrass; Postemergence, scale 0 to 100
  Johnsongrass plant response rating: 90
johnsongrass; [11]
  Plant response rating, Johnsongrass: 60
johnsongrass; [18]
  Johnsongrass plant response rating: 100
johnsongrass; [5]
  Plant response rating, Johnsongrass: 60
corn; 62 g ai/ha, preemergence
  Plant response rating (0 = no effect, 100 = complete control), Corn: 0
corn; [15]
  Plant response rating, Corn: 0
corn; [16]
  Plant response rating, Corn: 10
corn; Postemergence, scale 0 to 100
  Corn plant response rating: 80
corn; [11]
  Plant response rating, Corn: 80
corn; [17]
  Plant response rating, Corn: 80
corn; [18]
  Corn plant response rating: 10
corn; [5]
  Plant response rating, Corn: 80
[1]
  Plant response rating (0 = no effect, 100 = complete control), Sunflower: 0
[1]; [12]
  Plant response rating, Sunflower: 10
[1]; [13]
  Plant response rating, Sunflower: 10
[1]; [14]
  Sunflower plant response rating: 10

## C=Cn1nc(C(C)(C)C)cc1C(=O)Nc1cccc(C(C)=NO)c1 [Compound 114]
Eastern black nightshade; 31 g ai/ha, scale 0 to 100
  Plant response rating, Nightshade: 20
Eastern black nightshade
  Plant response rating (0 = no effect, 100 = complete control), Nightshade: 70
Eastern black nightshade; [12]
  Plant response rating, Nightshade: 90
Surinam grass; [2]
  Plant response rating, Surinam Grass: 10
Surinam grass; 62 g ai/ha, preemergence
  Plant response rating (0 = no effect, 100 = complete control), Surinam Grass: 10
Surinam grass; [15]
  Plant response rating, Surinam Grass: 10
Surinam grass; [17]
  Plant response rating, Surinam Grass: 20
Surinam grass; [3]
  Plant response rating, Surinam Grass: 10
Surinam grass; [5]
  Plant response rating, Surinam Grass: 10
velvetleaf; [2]
  Plant response rating, Velvetleaf: 0
velvetleaf; [15]
  Plant response rating, Velvetleaf: 30
velvetleaf; [17]
  Plant response rating, Velvetleaf: 80
velvetleaf; [3]
  Plant response rating, Velvetleaf: 70
velvetleaf; [5]
  Plant response rating, Velvetleaf: 60
barnyardgrass; [6]
  Barnyardgrass plant response rating: 30
barnyardgrass; [7]
  Plant response rating, Barnyardgrass: 40
barnyardgrass; [8]
  Barnyardgrass plant response rating: 25
barnyardgrass; [19]
  Barnyardgrass plant response rating: 40
morningglory; [6]
  Morningglory plant response rating: 10
morningglory; [7]
  Plant response rating, Morningglory: 25
morningglory; [8]
  Morningglory plant response rating: 35
morningglory; [19]
  Morningglory plant response rating: 70
Woolly cupgrass; [2]
  Plant response rating, Cupgrass, Woolly: 0
Woolly cupgrass; [15]
  Plant response rating, Cupgrass, Woolly: 10
Woolly cupgrass; [16]
  Plant response rating, Cupgrass, Woolly: 30
Woolly cupgrass; [17]
  Plant response rating, Cupgrass, Woolly: 70
Woolly cupgrass; [3]
  Plant response rating, Cupgrass, Woolly: 70
Woolly cupgrass; [5]
  Plant response rating, Cupgrass, Woolly: 70
johnsongrass; [2]
  Plant response rating, Johnsongrass: 0
johnsongrass; 62 g ai/ha, preemergence
  Plant response rating (0 = no effect, 100 = complete control), Johnsongrass: 20
johnsongrass; [15]
  Plant response rating, Johnsongrass: 30
johnsongrass; [17]
  Plant response rating, Johnsongrass: 70
johnsongrass; [3]
  Plant response rating, Johnsongrass: 70
johnsongrass; [5]
  Plant response rating, Johnsongrass: 70
corn; [2]
  Plant response rating, Corn: 10
corn; 62 g ai/ha, preemergence
  Plant response rating (0 = no effect, 100 = complete control), Corn: 10
corn; [15]
  Plant response rating, Corn: 10
corn; [16]
  Plant response rating, Corn: 10
corn; [17]
  Plant response rating, Corn: 40
corn; [3]
  Plant response rating, Corn: 30
corn; [5]
  Plant response rating, Corn: 30
[1]; 31 g ai/ha, scale 0 to 100
  Plant response rating, Sunflower: 30
[1]
  Plant response rating (0 = no effect, 100 = complete control), Sunflower: 30
[1]; [12]
  Plant response rating, Sunflower: 30
